According to US8686143B2, “Compounds useful as inhibitors of Janus kinases” (Vertex Pharmaceuticals Incorporated, priority 2007, dated 2014):

Biological target: T1, JAK3 (Homo sapiens, UniProt P52333)
T1 sequence (P52333 1-1124): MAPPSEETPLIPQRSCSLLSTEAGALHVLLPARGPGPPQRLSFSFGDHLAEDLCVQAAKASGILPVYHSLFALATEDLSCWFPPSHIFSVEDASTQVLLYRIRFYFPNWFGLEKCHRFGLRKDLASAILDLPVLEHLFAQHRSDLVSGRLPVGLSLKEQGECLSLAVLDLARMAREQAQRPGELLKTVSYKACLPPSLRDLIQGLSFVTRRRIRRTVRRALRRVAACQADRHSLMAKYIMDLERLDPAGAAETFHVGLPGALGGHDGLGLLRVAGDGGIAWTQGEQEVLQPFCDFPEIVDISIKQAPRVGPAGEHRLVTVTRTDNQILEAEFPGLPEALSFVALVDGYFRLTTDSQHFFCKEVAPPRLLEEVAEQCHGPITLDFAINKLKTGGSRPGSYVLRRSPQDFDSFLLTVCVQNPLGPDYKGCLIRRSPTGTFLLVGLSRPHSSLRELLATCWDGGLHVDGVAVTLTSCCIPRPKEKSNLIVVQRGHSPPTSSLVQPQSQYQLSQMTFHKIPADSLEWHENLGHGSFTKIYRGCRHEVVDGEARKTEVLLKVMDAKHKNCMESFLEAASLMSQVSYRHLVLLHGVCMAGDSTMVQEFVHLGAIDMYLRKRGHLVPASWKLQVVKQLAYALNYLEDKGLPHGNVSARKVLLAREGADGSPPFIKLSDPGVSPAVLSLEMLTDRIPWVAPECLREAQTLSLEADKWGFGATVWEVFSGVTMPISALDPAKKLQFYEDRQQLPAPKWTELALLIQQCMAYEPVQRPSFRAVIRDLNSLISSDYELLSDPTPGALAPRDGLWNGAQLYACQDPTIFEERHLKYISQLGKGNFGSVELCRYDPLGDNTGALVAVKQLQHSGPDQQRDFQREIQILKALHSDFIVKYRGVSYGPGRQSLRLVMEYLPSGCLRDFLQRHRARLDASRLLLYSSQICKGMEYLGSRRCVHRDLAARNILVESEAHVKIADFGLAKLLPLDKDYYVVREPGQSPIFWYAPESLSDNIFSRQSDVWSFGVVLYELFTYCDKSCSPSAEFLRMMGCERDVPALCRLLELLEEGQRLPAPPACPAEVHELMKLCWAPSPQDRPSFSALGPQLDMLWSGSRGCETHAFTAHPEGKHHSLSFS
Assay: JAK3 Inhibition Assay (33P incorporation into poly(Glu)4Tyr)
Assay type: biochemical
Details: for Ki: 1 nM JAK3, 5 μM ATP, 1 μM poly(Glu)4Tyr, 25° C.
Protocol: Compounds were screened for their ability to inhibit JAK3 using the assay shown below. Reactions were carried out in a kinase buffer containing 100 mM HEPES (pH 7.4), 1 mM DTT, 10 mM MgCl2, 25 mM NaCl, and 0.01% BSA. Substrate concentrations in the assay were 5 μM ATP (200 uCi/μmole ATP) and 1 μM poly(Glu)4Tyr. Reactions were carried out at 25° C. and 1 nM JAK3.
To each well of a 96 well polycarbonate plate was added 1.5 μl of a candidate JAK3 inhibitor along with 50 μlof kinase buffer containing 2 μM poly(Glu)4Tyr and 10 μM ATP. This was then mixed and 50 μl of kinase buffer containing 2 nM JAK3 enzyme was added to start the reaction. After 20 minutes at room temperature (25° C.), the reaction was stopped with 50 μl of 20% trichloroacetic acid (TCA) that also contained 0.4 mM ATP. The entire contents of each well were then transferred to a 96 well glass fiber filter plate using a TomTek Cell Harvester. After washing, 60 μl of scintillation fluid was added and ^33P incorporation detected on a Perkin Elmer TopCount.

SMILES	Ki [µM]	inhibition of JAK3 at concentrations of 50 μM
CC(C)[C@@H](Nc1ccnc(-c2c[nH]c(C(=O)NCC3CC3)c2)n1)C(=O)NCC(F)(F)F [Compound 112]	1 to 10	
CC(C)[C@@H](Nc1ccnc(-c2c[nH]c(C(=O)N3CCCC3)c2)n1)C(=O)NCC(F)(F)F [Compound 113]	1 to 10	
CC(C)[C@@H](Nc1ccnc(-c2c[nH]c(C(=O)N3CC=CC3)c2)n1)C(=O)NCC(F)(F)F [Compound 114]	≤ 1	
CNC(=O)c1cc(-c2ncc(F)c(N3CCC[C@@H]3C(=O)NCC(F)(F)F)n2)c[nH]1 [Compound 115]	10 to 50	
O=C(NCc1ccccc1)c1cc(-c2ncc(F)c(N3CCC[C@@H]3C(=O)NCC(F)(F)F)n2)c[nH]1 [Compound 116]	10 to 50	
CC(C)NC(=O)c1cc(-c2ncc(F)c(N3CCC[C@@H]3C(=O)NCC(F)(F)F)n2)c[nH]1 [Compound 117]		did not inhibit
O=C(NCC1CC1)c1cc(-c2ncc(F)c(N3CCC[C@@H]3C(=O)NCC(F)(F)F)n2)c[nH]1 [Compound 118]	10 to 50	
O=C(NCC(F)(F)F)[C@H]1CCCN1c1nc(-c2c[nH]c(C(=O)N3CCCC3)c2)ncc1F [Compound 119]	1 to 10	
O=C(NCC(F)(F)F)[C@H]1CCCN1c1nc(-c2c[nH]c(C(=O)N3CC=CC3)c2)ncc1F [Compound 120]	≤ 1	
O=C(NCc1ccccc1)c1cc(-c2nccc(N3CCC[C@@H]3C(=O)NCC(F)(F)F)n2)c[nH]1 [Compound 121]	1 to 10	
CC(C)NC(=O)c1cc(-c2nccc(N3CCC[C@@H]3C(=O)NCC(F)(F)F)n2)c[nH]1 [Compound 122]		did not inhibit
CC(C)(Nc1nc(-c2ccc(O)cc2)ncc1F)C(=O)NCC(F)(F)F [Compound 123]	≤ 1	
COc1ccc(-c2ncc(F)c(NC(C)(C)C(=O)NCC(F)(F)F)n2)cc1 [Compound 124]		did not inhibit
CC(C)(Nc1nc(-c2ccc3c(c2)OCCO3)ncc1F)C(=O)NCC(F)(F)F [Compound 125]		did not inhibit
CC(C)[C@@H](Nc1nc(-c2c[nH]c(C(=O)NC3CC3)c2)ncc1F)C(=O)NCC(F)(F)F [Compound 126]	10 to 50	
O=C(O)c1cc(-c2ncc(F)c(N3CCC[C@@H]3C(=O)NCC(F)(F)F)n2)c[nH]1 [Compound 127]		did not inhibit
CC(C)(Nc1ccnc(-c2c[nH]c(C(=O)O)c2)n1)C(=O)NCC(F)(F)F [Compound 128]		did not inhibit
CN(C)C(=O)c1cc(-c2ncc(F)c(N3CCC[C@@H]3C(=O)NCC(F)(F)F)n2)c[nH]1 [Compound 129]	10 to 50	
O=C(NCC(F)(F)F)[C@H]1CCCN1c1ccnc(-c2c[nH]c(C(=O)N3CCCC3)c2)n1 [Compound 130]	1 to 10	
CN(C)C(=O)c1cc(-c2nccc(NC(C)(C)C(=O)NCC(F)(F)F)n2)c[nH]1 [Compound 132]	≤ 1	
CC(C)(Nc1nc(-c2c[nH]c(C(=O)O)c2)ncc1F)C(=O)NCC(F)(F)F [Compound 133]	1 to 10	
CC(C)[C@@H](Nc1ccnc(-c2c[nH]c(C(=O)O)c2)n1)C(=O)NCC(F)(F)F [Compound 134]		did not inhibit
CC(C)[C@@H](Nc1ccnc(-c2c[nH]c(=O)c(N)c2)n1)C(=O)NCC(F)(F)F [Compound 135]	10 to 50	
CC(C)(Nc1ccnc(-c2c[nH]c(=O)c(N)c2)n1)C(=O)NCC(F)(F)F [Compound 136]	1 to 10	
CC(C)[C@@H](Nc1nc(-c2c[nH]c(=O)c(N)c2)ncc1F)C(=O)NCC(F)(F)F [Compound 137]	10 to 50	
Nc1cc(-c2ncc(F)c(N3CCC[C@@H]3C(=O)NCC(F)(F)F)n2)c[nH]c1=O [Compound 138]		did not inhibit

SMILES	Ki [µM]	inhibition of JAK3 at concentrations of 50 μM
O=C(NCC(F)(F)F)[C@H]1CCCN1c1ccnc(-c2c[nH]c(C(=O)N3CC=CC3)c2)n1 [Compound 139]	≤ 1	
CC(C)(Nc1nc(-c2ccc3ncsc3c2)ncc1F)C(=O)NCC(F)(F)F [Compound 140]	≤ 1	
O=C(NCC(F)(F)F)[C@H]1CCCN1c1nc(-c2ccc3ncsc3c2)ncc1F [Compound 141]	1 to 10	
CC(C)[C@@H](Nc1nc(-c2ccc(O)cc2)ncc1F)C(=O)NCC(F)(F)F [Compound 142]	10 to 50	
COc1ccc(-c2nccc(N[C@@H](C(=O)NCC(F)(F)F)C(C)C)n2)cc1 [Compound 143]		did not inhibit
CC(C)(Nc1ccnc(-c2ccc(O)cc2)n1)C(=O)NCC(F)(F)F [Compound 144]	≤ 1	
COc1ccc(-c2ncc(F)c(N[C@@H](C(=O)NCC(F)(F)F)C(C)C)n2)cc1 [Compound 145]		did not inhibit
CC(C)[C@@H](Nc1ccnc(-c2ccc3c(c2)OCCO3)n1)C(=O)NCC(F)(F)F [Compound 146]		did not inhibit
O=C(NCC(F)(F)F)[C@H]1CCCN1c1ccnc(-c2ccc(O)cc2)n1 [Compound 147]	1 to 10	
CC(C)[C@@H](Nc1ccnc(-c2ccc3ncsc3c2)n1)C(=O)NCC(F)(F)F [Compound 148]	≤ 1	
COc1ccc(-c2nccc(NC(C)(C)C(=O)NCC(F)(F)F)n2)cc1 [Compound 149]		did not inhibit
COc1ccc(-c2nccc(N3CCC[C@@H]3C(=O)NCC(F)(F)F)n2)cc1 [Compound 150]		did not inhibit
O=C(NCC(F)(F)F)[C@H]1CCCN1c1nc(-c2ccc(O)cc2)ncc1F [Compound 151]	10 to 50	
O=C(NCC(F)(F)F)[C@H]1CCCN1c1nc(-c2ccc3c(c2)OCCO3)ncc1F [Compound 153]		did not inhibit
CC(C)(Nc1ccnc(-c2ccc3ncsc3c2)n1)C(=O)NCC(F)(F)F [Compound 154]	≤ 1	
O=C(NCC(F)(F)F)[C@H]1CCCN1c1ccnc(-c2ccc3ncsc3c2)n1 [Compound 155]	≤ 1	
CC(C)(Nc1nc(-c2c[nH]c3ccc(Cl)cc23)ncc1F)C(=O)NCC(F)(F)F [Compound 156]	1 to 10	
O=C(NCC(F)(F)F)[C@H]1CCCN1c1nc(-c2c[nH]c3ccc(Cl)cc23)ncc1F [Compound 157]		did not inhibit
CC(C)(Nc1ccnc(-c2c[nH]c3ccc(Cl)cc23)n1)C(=O)NCC(F)(F)F [Compound 158]	1 to 10	
O=C(NCC(F)(F)F)[C@H]1CCCN1c1ccnc(-c2c[nH]c3ccc(Cl)cc23)n1 [Compound 159]	10 to 50	
CC(C)[C@@H](Nc1nc(-c2c[nH]c3ccc(Cl)cc23)ncc1F)C(=O)NCC(F)(F)F [Compound 160]		did not inhibit
CC(C)[C@@H](Nc1ccnc(-c2c[nH]c3ccc(Cl)cc23)n1)C(=O)NCC(F)(F)F [Compound 161]	10 to 50	
CC(C)(Nc1nc(-c2ccc3nccnc3c2)ncc1F)C(=O)NCC(F)(F)F [Compound 162]	≤ 1	
CC(C)(Nc1ccnc(-c2ccc3nccnc3c2)n1)C(=O)NCC(F)(F)F [Compound 163]	≤ 1	
CC(C)[C@@H](Nc1ccnc(-c2ccc3nccnc3c2)n1)C(=O)NCC(F)(F)F [Compound 164]	1 to 10	
O=C(NCC(F)(F)F)[C@H]1CCCN1c1nc(-c2ccc3nccnc3c2)ncc1F [Compound 165]	10 to 50	
